In patent US12624044B2, “SMARCA degraders and uses thereof” (Kymera Therapeutics, Inc., priority 2019, dated 2026):

Legend:
Format in all cases: cell-based
[1] = target: T1, SMARCA2 (Homo sapiens, UniProt P51531); experiment: MSD SMARCA2 degradation in NCI-H1299 cell line (24 h); parameters: HC: NCI-H1299 cells treated with DMSO; host or cells: NCI-H1299; conditions: NCI-H1299 cells
Method in brief: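 NCI-H1299 cells treated 24 h with a 3-fold, 9-point compound dilution series, then lysed in RIPA with protease inhibitor. SMARCA2 in lysate-coated MSD plates detected with rabbit anti-SMARCA2 (0.3 ug/ml) and SULFO-TAG secondary. Relative SMARCA2 level normalized between DMSO-treated H1299 cells and SMARCA2-negative A2780 cells; Dmax % binned A–D.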

[2] = target: T1, SMARCA2; experiment: MSD SMARCA2 degradation in A549 cell line; conditions: for DC50 / Dmax: 24 h; for DC50: read-out: SMARCA2 MSD A549 degradation 24 h: Average external-Abs DC50; for Dmax: A549, A549 cells
Method in brief: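 A549 cells treated 24 h with compound at final 0.152-1000 nM (3-fold series, DMSO control). Lysates analyzed by MSD immunoassay using anti-SMARCA2/BRM detection and SULFO-TAG secondary antibodies; maximal degradation (Dmax %) reported as letter bins.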

[3] = target: T1, SMARCA2; experiment: SMARCA2 Western blot MV4-11 degradation; conditions: for DC50 / Dmax: 24 h; for DC50: read-out: SMARCA2 WB MV411 degradation 24 h: Average external-Abs DC50; for Dmax: MV4-11, MV4-11 cells, read-out: SMARCA2 WB MV411 degradation 24 h: Average Dmax %
Protocol: Cells were seeded into 6-well plates (MV4-11: 4×10^6 cells/well/1 ml) and 1 ml of 2× compound solution was added into the well to make the final concentration and the plates were mixed well and incubated for 24 hours (No cytotoxicity was observed). The cell were collected with media and spun at 3000 rpm for 5 minutes. The supernatant was aspirated and the well and the cells were washed with cold PBS once and combined for centrifugation again; the supernatant aspirated again. 200 ul pre-chilled RIPAlysis buffer (Boston BioProducts BP-115D) with protease/phosphatase inhibitor (Roche 05892791001/Roche 04906837001) was directly added into the tube to lyze the cells for 20 minutes on ice. The cell lysate were collected into EP tubes and spun at 13000 rpm for 20 minutes and 72 ul supernatant was transferred to a fresh EP tube containing 18 ul of 5× loading buffer (Beyotime Bio P0015) to make the loading samples. The samples were heated to 100° C. for 10 minutes and cooled to RT and microcentrifuged. 20 ul of samples were loaded onto SDS-PAGE gel (Novex, WG1402BOX) and the gel was run at 80 V for 20 minutes and 120 V for 1.5 hours. The samples were electrotransfer to a NC membrane using wet-transfer method with 250 mA for 2.5 hours. The membrane was blocked with LICOR blocking buffer (LI-COR, 927-50000) for 1 hour. The membrane was washed three times with TBST (CST #9997S), 5 minutes each. Incubation was performed with primary antibody prepared in blocking buffer with 0.1% Tween-20 (Solarbio, P8220) at 4° C. overnight (Anti-SMARCA2/BRM antibody (ab15597) 1:500; Anti-BRG1 antibody [EPR3912] (ab108318) 1:1000; Rabbit anti-Baf180 antibody [EPR15860] (Abcam, ab196022) 1:1000; mouse anti-beta-Actin (8H10D10) (CST #3700) 1:10000). The membrane was washed three times with TBST, 5 minutes each. Incubation with secondary antibody was performed for 1 hour at RT (anti-rabbit IgG (Licor, 926-32211) 1:5000; anti-mouse IgG (LI-COR, 926-68070) 1:5000). The membrane was washed three times with TBST, 5 minutes each and lastly the LiCOR was read.
The letter codes for the percentage of SMARCA degradation after 24 hours (Dmax %) include: A (>90% degradation), B (>70-90% degradation), C (50-70% degradation), and D (<50% degradation).

[4] = target: T2, SMARCA4 (Homo sapiens, UniProt P51532); experiment: SMARCA4 Western blot MV4-11 degradation; conditions: for DC50 / Dmax: 24 h; for DC50: read-out: SMARCA4 WB MV411 degradation 24 h: Average external-Abs DC50; for Dmax: MV4-11, MV4-11 cells, read-out: SMARCA4 WB MV411 degradation 24 h: Average Dmax %
T2 construct: SMARCA2 and SMARCA4 protein degradation in MV4-11 cells; endogenous in cells; host or cells: MV4-11
T2 sequence (P51532 whole entry): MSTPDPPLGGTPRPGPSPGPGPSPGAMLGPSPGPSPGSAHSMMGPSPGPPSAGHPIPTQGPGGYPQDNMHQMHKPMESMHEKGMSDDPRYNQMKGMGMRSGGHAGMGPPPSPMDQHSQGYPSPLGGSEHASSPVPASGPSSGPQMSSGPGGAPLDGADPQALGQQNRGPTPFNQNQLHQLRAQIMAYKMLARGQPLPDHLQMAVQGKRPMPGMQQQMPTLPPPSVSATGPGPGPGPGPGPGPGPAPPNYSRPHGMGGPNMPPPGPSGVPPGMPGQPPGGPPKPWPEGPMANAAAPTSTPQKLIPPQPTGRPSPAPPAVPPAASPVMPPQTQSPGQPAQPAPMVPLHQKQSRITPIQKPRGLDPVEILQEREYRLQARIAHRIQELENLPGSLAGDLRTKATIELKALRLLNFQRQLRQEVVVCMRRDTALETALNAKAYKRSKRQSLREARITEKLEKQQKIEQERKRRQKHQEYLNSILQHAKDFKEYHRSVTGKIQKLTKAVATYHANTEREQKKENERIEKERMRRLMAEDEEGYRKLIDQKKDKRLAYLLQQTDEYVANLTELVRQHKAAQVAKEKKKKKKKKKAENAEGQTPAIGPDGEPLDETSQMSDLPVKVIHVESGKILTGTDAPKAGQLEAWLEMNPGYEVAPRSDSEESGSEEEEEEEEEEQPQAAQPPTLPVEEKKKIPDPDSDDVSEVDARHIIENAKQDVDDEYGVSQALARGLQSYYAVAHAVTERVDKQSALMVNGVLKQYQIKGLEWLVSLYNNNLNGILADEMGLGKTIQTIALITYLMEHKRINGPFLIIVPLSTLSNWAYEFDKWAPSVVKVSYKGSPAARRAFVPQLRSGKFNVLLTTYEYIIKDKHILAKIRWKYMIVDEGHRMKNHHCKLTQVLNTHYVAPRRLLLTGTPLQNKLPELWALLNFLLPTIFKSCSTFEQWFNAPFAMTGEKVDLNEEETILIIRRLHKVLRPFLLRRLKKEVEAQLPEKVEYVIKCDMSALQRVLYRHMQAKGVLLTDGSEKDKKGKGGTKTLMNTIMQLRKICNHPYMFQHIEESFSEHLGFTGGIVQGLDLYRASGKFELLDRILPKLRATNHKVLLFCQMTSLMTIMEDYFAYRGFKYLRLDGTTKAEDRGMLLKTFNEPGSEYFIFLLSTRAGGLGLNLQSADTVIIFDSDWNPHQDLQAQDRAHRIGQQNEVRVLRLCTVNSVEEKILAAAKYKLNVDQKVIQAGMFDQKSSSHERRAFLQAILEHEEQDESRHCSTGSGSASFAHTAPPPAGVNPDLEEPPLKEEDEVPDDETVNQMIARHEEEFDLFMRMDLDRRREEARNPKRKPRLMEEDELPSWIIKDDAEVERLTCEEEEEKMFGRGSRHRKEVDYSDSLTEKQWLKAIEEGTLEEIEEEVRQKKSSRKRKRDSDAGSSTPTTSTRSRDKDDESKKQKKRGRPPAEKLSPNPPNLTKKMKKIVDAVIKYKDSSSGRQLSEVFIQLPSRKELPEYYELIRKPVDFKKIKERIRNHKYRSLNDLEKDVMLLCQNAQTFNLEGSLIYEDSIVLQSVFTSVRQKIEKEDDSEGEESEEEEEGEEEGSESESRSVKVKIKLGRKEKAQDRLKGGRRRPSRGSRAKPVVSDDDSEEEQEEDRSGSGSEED
Method in brief: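 MV4-11 cells treated with compound for 24 h, lysed in RIPA with protease/phosphatase inhibitors, and SMARCA2 and SMARCA4 (BRG1) levels assessed by Western blot with β-actin loading control and LI-COR fluorescent read-out. Maximal degradation (Dmax %) after 24 h binned into letter codes.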

T1 sequence (P51531 whole entry): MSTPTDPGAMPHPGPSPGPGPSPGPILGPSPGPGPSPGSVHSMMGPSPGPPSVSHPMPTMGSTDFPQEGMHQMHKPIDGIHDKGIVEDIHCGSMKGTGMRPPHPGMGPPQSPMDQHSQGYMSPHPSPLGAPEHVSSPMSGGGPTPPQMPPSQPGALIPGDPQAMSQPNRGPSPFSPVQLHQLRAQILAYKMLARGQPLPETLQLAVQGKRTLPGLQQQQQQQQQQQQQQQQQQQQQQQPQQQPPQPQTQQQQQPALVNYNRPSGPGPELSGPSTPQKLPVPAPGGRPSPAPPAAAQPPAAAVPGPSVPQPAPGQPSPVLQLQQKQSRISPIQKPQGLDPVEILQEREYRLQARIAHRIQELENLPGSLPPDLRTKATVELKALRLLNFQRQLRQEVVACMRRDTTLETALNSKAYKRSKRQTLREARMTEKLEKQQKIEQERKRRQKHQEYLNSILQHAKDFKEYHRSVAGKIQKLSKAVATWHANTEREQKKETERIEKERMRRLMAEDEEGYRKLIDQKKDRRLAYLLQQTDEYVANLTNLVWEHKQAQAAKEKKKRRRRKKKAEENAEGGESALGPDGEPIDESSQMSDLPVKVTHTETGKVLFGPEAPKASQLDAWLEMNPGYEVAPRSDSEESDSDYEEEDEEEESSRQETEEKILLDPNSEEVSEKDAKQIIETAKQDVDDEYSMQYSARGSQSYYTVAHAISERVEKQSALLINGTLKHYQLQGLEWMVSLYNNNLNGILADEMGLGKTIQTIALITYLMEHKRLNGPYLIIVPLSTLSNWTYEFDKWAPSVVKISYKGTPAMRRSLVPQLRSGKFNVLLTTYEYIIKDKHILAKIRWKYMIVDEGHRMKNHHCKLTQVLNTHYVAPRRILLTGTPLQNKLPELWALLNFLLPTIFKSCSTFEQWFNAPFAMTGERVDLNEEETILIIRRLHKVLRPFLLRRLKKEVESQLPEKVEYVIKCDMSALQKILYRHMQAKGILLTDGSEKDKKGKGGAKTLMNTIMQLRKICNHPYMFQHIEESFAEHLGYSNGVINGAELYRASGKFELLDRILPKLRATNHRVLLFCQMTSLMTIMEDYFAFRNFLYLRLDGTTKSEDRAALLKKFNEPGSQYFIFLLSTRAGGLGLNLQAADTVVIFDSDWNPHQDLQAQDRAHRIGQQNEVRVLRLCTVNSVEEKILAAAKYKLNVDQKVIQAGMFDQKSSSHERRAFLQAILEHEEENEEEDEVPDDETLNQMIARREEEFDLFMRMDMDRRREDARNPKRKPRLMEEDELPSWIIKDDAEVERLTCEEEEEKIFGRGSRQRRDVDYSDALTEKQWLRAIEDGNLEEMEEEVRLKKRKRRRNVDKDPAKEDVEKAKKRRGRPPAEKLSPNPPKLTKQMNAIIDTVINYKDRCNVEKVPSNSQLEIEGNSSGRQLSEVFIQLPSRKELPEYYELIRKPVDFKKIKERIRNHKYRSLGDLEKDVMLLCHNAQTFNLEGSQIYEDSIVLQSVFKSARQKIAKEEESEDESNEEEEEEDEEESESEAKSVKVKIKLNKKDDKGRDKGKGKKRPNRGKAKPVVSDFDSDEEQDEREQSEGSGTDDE

| SMARCA2 MSD H1299 degradation 24 h: Dmax % [1] | DC50 ([1]; read-out: SMARCA2 MSD H1299 degradation 24 h: External Abs-DC50) [nM] | SMARCA2 MSD A549 degradation 24 h: Average Dmax % ([2]; A549 cells) | SMARCA2 WB MV411 degradation 24 h: Average Dmax % ([3]; MV4-11 cells) | SMARCA4 WB MV411 degradation 24 h: Average Dmax % ([4]; MV4-11 cells) | SMILES | DC50 ([2]; A549 cells) [nM] | DC50 ([3]; MV4-11 cells) [nM] | DC50 ([4]; MV4-11 cells) [nM] | Dmax [2] [%] | Dmax [3] [%] | Dmax [4] [%] |
| --- | --- | --- | --- | --- | --- | --- | --- | --- | --- | --- | --- |
| C (C (50-70 degradation)) | 501 to 1000 | B (B (>70-90% degradation)) | B (B (>70-90% degradation)) | D (D (<50% degradation)) | Cc1ncsc1-c1ccc(CNC(=O)[C@@H]2C[C@@H](O)CN2C(=O)[C@@H](NC(=O)[C@H]2CC3(C2)C[C@H](N2CCC(n4cc(-c5cc(-c6ccccc6O)nnc5N)cn4)CC2)C3)C(C)(C)C)cc1 (some centres unmarked) [I-390] | 100 to 500 | < 100 | < 100 | – | – | – |
| – | – | – | – | – | Cn1c(=O)n(C2CCC(=O)NC2=O)c2cccc(C3CCC(N4CCC(n5cc(-c6cc(-c7ccccc7O)nnc6N)cn5)CC4)CC3)c21 (centres unmarked) [I-321] | < 100 | < 100 | < 100 | > 90 | > 90 | > 90 |
| – | – | – | – | – | Cc1ncsc1-c1ccc(CNC(=O)[C@@H]2C[C@@H](O)CN2C(=O)[C@@H](NC(=O)[C@H]2CC[C@H](c3cnc(N4C5CCC4CN(c4cc(-c6ccccc6O)nnc4N)C5)nc3)CC2)C(C)(C)C)c(C(F)(F)F)c1 [I-404] | 100 to 500 | < 100 | 100 to 500 | > 90 | > 90 | 70 to 90 |
| – | – | – | – | – | Cc1ncsc1-c1ccc([C@H](C)NC(=O)[C@@H]2C[C@@H](O)CN2C(=O)[C@@H](NC(=O)[C@H]2CC[C@H](c3cnc(N4C5CCC4CN(c4cc(-c6ccccc6O)nnc4N)C5)nc3)CC2)C(C)(C)C)cc1 [I-438] | < 100 | < 100 | < 100 | > 90 | > 90 | > 90 |
| – | – | – | – | – | Cc1ncsc1-c1ccc(CNC(=O)[C@@H]2C[C@@H](O)CN2C(=O)[C@@H](NC(=O)[C@H]2CC3(C2)C[C@H](N2CCC(c4cnc(N5C6CCC5CN(c5cc(-c7ccccc7O)nnc5N)C6)nc4)CC2)C3)C(C)(C)C)cc1 (some centres unmarked) [I-423] | < 100 | < 100 | 100 to 500 | > 90 | > 90 | 50 to 70 |
| – | – | – | – | – | Cc1ncsc1-c1ccc(CNC(=O)[C@@H]2C[C@@H](O)CN2C(=O)[C@@H](NC(=O)CN2CCC(c3cnc(N4C5CCC4CN(c4cc(-c6ccccc6O)nnc4N)C5)nc3)CC2)C(C)(C)C)c(C(F)(F)F)c1 [I-522] | 100 to 500 | < 100 | > 1000 | 70 to 90 | > 90 | 70 to 90 |
| – | – | – | – | – | Cc1ncsc1-c1ccc(CNC(=O)[C@@H]2C[C@@H](O)CN2C(=O)[C@@H](NC(=O)[C@H]2C[C@@]3(C2)C[C@H](c2cnc(N4C5CCC4CN(c4cc(-c6ccccc6O)nnc4N)C5)nc2)C3)C(C)(C)C)cc1 (some centres unmarked) [I-369] | < 100 | < 100 | < 100 | – | – | – |
| – | – | – | – | – | Cc1ncsc1-c1ccc(CNC(=O)[C@@H]2C[C@@H](O)CN2C(=O)[C@@H](NC(=O)C23CCC(CN4CCC(n5cc(-c6cc(-c7ccccc7O)nnc6N)cn5)CC4)(CC2)CC3)C(C)(C)C)cc1 [I-428] | 100 to 500 | < 100 | 100 to 500 | > 90 | > 90 | 70 to 90 |
| – | – | – | – | – | Cn1c(=O)n(C2CCC(=O)NC2=O)c2ccc(C3CC4(C3)CC(N3CCC(c5cnc(N6C7CCC6CN(c6cc(-c8ccccc8O)nnc6N)C7)nc5)CC3)C4)cc21 (single isomer, unassigned) [I-536 (P1), 3-(5-(6-(4-(2-(3-(3-amino-6-(2-hydroxyphenyl)pyridazin-4-yl)-3,8-diazabicyclo[3.2.1]octan-8-yl)pyrimidin-5-yl)piperidin-1-yl)spiro[3.3]heptan-2-yl)-3-methyl-2-oxo-2,3-dihydro-1H-benzo[d]imidazol-1-yl)piperidine-2,6-dione] | < 100 | < 100 | < 100 | – | – | – |
| – | – | – | – | – | Cc1ncsc1-c1ccc(CNC(=O)[C@@H]2C[C@@H](O)CN2C(=O)[C@@H](NC(=O)CN2C3CCC2CC(c2cnc(N4C5CCC4CN(c4cc(-c6ccccc6O)nnc4N)C5)nc2)C3)C(C)(C)C)cc1 (some centres unmarked) [I-509] | 100 to 500 | < 100 | > 1000 | > 90 | 70 to 90 | 70 to 90 |
| – | – | – | – | – | Cc1ncsc1-c1ccc(CNC(=O)[C@@H]2C[C@@H](O)CN2C(=O)[C@@H](NC(=O)CN2CCN([C@H]3CC[C@@H](c4cnc(N5C6CCC5CN(c5cc(-c7ccccc7O)nnc5N)C6)nc4)CC3)CC2)C(C)(C)C)cc1 (single isomer, unassigned) [I-445] | 100 to 500 | < 100 | < 100 | > 90 | > 90 | > 90 |
| – | – | – | – | – | Cc1ncsc1-c1ccc(CNC(=O)[C@@H]2C[C@@H](O)CN2C(=O)[C@@H](NC(=O)C2CCC(CN3CCC(n4cc(-c5cc(-c6ccccc6O)nnc5N)cn4)CC3)CC2)C(C)(C)C)cc1 (some centres unmarked) [I-327] | 100 to 500 | < 100 | > 1000 | > 90 | > 90 | < 50 |
| – | – | – | – | – | Cc1ncsc1-c1ccc(CNC(=O)[C@@H]2C[C@@H](O)CN2C(=O)[C@@H](NC(=O)[C@H]2C[C@@H](N3CCC(c4cnc(N5C6CCC5CN(c5cc(-c7ccccc7O)nnc5N)C6)nc4)CC3)C2)C(C)(C)C)cc1 [I-349] | 100 to 500 | < 100 | 501 to 1000 | > 90 | 70 to 90 | < 50 |
| – | – | – | – | – | Cn1c(=O)n(C2CCC(=O)NC2=O)c2ccc([C@H]3CC[C@@H](N4CCC(c5cnc(N6C7CCC6CN(c6cc(-c8ccccc8O)nnc6N)C7)nc5)CC4)CC3)cc21 (some centres unmarked) [I-277] | < 100 | < 100 | < 100 | > 90 | > 90 | > 90 |
